Experimental data from US9364555B2, “Pederin and psymberin agents” (priority 2011, dated 2016).
Where two headings read alike, the source gives them in different places.

Columns and labels:
[1] = system: HCT116 colon cancer cells; test: cell viability study, MTS assay with a three day incubation period; type: cell-based
Experimental: The potency of the above-described compounds was measured in cell viability studies using HCT116 colon cancer cells with an MTS assay with a three day incubation period.
The second generation analogs were evaluated for their ability to inhibit HCT116 cell growth through the same protocol that was used to evaluate the initial set of compounds.

[2] = system: p53 knockout variant of the HCT116 cell line; test: test against p53 knockout variant of the HCT116 cell line; type: cell-based
Description: The identity of the alkoxy group in the acyl aminal subunit appears to exert little influence over the biological activity, but the presence of the alkoxy group enhances potency by at least one order of magnitude (entries 1-4 vs. entry 5). […] This has also been observed in psymberin analogs that lack a substituent at that position (Huang et al., Org. Lett. 2009, 11, 867). […] The approximately one order of magnitude potency reduction of the des-methylene analog (entry 7), though consistent with results from the Nakata group, was somewhat surprising based on the minimal structural perturbation that this change effects on the hydrogen bond donors and acceptors in the molecule (Fukui et al., Bioorg. Med. Chem. Lett. 1997, 7, 2081).

[3] = system: HCT116 colon cancer cells; conditions: literature value, read-out: GI50 value in the literature for this cell line; cited from earlier work
[4] = HCT116 cells, MTS assay, three day incubation, Table 1, natural products and analogs
[5] = Homo sapiens, HCT-116, HCT116 cell growth, same protocol as Table 1, Table 2, second generation analogs
[6] = HCT116 cell growth, same protocol as Table 1, Table 2, second generation analogs

## 10-desmethoxy pederin [Compound 36e]
[1]; [4]
  GI50: 7.7 ± 0.24 nM

## COC[C@H](C[C@H]1O[C@H]([C@H](C)NC(=O)[C@@H](O)[C@@]2(OC)CC[C@@H](C)[C@@H](C)O2)C[C@@H](OC)C1(C)C)OC [Compound 51, 4-desmethylene-10-(S)-methyl 13-O-methylpederin]
[1]; [5]
  GI50: 42 ± 5 nM

## C=C1C[C@](OC)([C@H](O)C(=O)N[C@@H](OC)[C@@H]2C[C@@H](OC)C(C)(C)[C@@H](C[C@@H](COC)OC)O2)O[C@H](C)[C@@H]1C [Compound 41, 13-O-methyl pederin]
[2]
  activity against p53 knockout variant of HCT116 compared with HCT116: essentially identical activity
[1]; [4]
  GI50: 0.084 ± 0.01 nM

## 10-trifluoroethoxy pederin [Compound 36c]
[1]; [4]
  GI50: 0.55 ± 0.024 nM

## pedestatin [Compound 46]
[1]; [4]
  GI50: 0.046 ± 0.03 nM

## C=C1CC(OC)(C(O)C(=O)NC(OCC)C2CC(O)C(C)(C)C(CC(COC)OC)O2)OC(C)C1C (stereo not drawn) [Compound 36b, 10-ethoxy pederin]
[1]; [4]
  GI50: 0.34 ± 0.08 nM

## C=C1C[C@](OC)([C@H](O)C(=O)N[C@@H](OC)[C@@H]2C[C@@H](O)C(C)(C)[C@@H](C[C@@H](COC)OC)O2)O[C@H](C)[C@@H]1C [Compound 1, pederin]
[2]
  activity against p53 knockout variant of HCT116 compared with HCT116: essentially identical activity
[1]; [4]
  GI50: 0.6 ± 0.1 nM

## 10-dimthoxybenzyloxy pederin [Compound 36d]
[1]; [4]
  GI50: 0.32 ± 0.09 nM

## COC[C@H](C[C@H]1O[C@H]([C@@H](C)NC(=O)[C@@H](O)[C@@]2(OC)CC[C@@H](C)[C@@H](C)O2)C[C@@H](OC)C1(C)C)OC [Compound 52, 4-desmethylene-10-(R)-methyl 13-O-methylpederin]
[1]; [5]
  GI50: > 9000 nM

## 8-desmethoxy psymberin [Compound 47]
[1]; [6]
  GI50: 0.83 ± 0.1 nM

## 4-desmethylene-10-desmethoxy 13-O-methylpederin [Compound 49]
[1]; [6]
  GI50: 79 ± 8 nM

## C4-desmethylene pederin [Compound 40]
[2]
  activity against p53 knockout variant of HCT116 compared with HCT116: essentially identical activity
[1]; [4]
  GI50: 6.5 ± 0.8 nM

## 13-OTBS pederin
[1]; [4]
  GI50: 3.1 ± 0.1 nM

## C=C1C[C@](OC)([C@H](O)C(=O)N/C=C2/C[C@@H](O)C(C)(C)[C@@H](C[C@@H](COC)OC)O2)O[C@H](C)[C@@H]1C [Compound 37, pederin enamide]
[2]
  activity against p53 knockout variant of HCT116 compared with HCT116: essentially identical activity
[1]; Homo sapiens, HCT-116, 72 h, HCT116 cells, MTS assay, three day incubation, Table 1, natural products and analogs
  GI50: 27 ± 0.88 nM

## C=C(C)CC(OC)[C@H](O)C(=O)N[C@@H](OC)[C@@H]1C[C@@H](O)C(C)(C)[C@@H](C[C@H](O)[C@@H](C)[C@H]2Cc3c(C)c(O)cc(O)c3C(=O)O2)O1 (stereo partly drawn) [Compound 2, psymberin]
[1]; [4]
  GI50: 0.052 ± 0.02 nM
[3]
  GI50: 0.16 nM

## 10-desmethoxy pedestatin [Compound 48]
[1]; [6]
  GI50: 0.068 ± 0.02 nM
